Here are results for two compounds from patent publication US20100273876A1, “ANTIBACTERIAL FORMULATION COMPRISING A DIALKYL SULPHOSUCCINATE AND A CARBANILIDE ANTIBACTERIAL AGENT” (priority 2007, published 2010).

Values after ≈ are worked out from the molar mass of the structure shown. Read-outs that look alike come from different tables or passages of the source.

What is called MIC is the lowest concentration found to suppress growth.

In one assay the test system is P. acnes NCTC 737. Kind of assay: Minimum inhibitory concentration (MIC) assay, liquid medium. In kind it is cell-based, Propionibacterium acnes. The protocol: The propionibacteria were cultured and maintained on Wilkins-Chalgren Anaerobe Medium (agar and broth) at pH 6.0; all cultures were incubated anaerobically at 37° C. for 72 hours.
This is a standard international method for quantitatively assessing the antimicrobial activity of a compound in a liquid medium. The method used a sterile 96-well microtitre plate, capable of holding about 200 μl of liquid per well. The wells contained liquid culture medium and ranges of decreasing concentrations of the relevant test compound in doubling dilutions (eg, 1000, 500, 250, 125 . . . μg/ml, etc. down to 0.49 μg/ml). The culture media were as described above.
The wells were inoculated with a liquid suspension of freshly grown micro-organism and incubated under the conditions described above. After incubation, the microtitre plate was examined visually (with the aid of a light box) for cloudiness in each well, which would indicate microbial growth. The MIC value was recorded as the lowest concentration of test compound required to inhibit microbial growth, ie, the lowest concentration for which the liquid in the well remained clear.
The assays included both negative (culture medium with no micro-organisms) and positive (culture medium plus diluting solvent plus micro-organism) controls.

Assay [1] deals with Por. gingivalis NCTC 11834. Kind of assay: (S)DDA disc diffusion. In kind it is cell-based, Porphyromonas gingivalis. The conditions noted are these: for DDA: 200 μg per disc. The protocol:
The P. gingivalis strains were cultured and maintained on Wilkins-Chalgren Anaerobe Medium (agar and broth) at pH 7.0; all cultures were incubated anaerobically at 37° C. for 5-7 days.
(§1) A sterile paper disc was impregnated with a sample of the test compound in a suitable solvent and 30 minutes allowed for the solvents to evaporate (where possible). The disc was then placed on an agar plate onto which the test micro-organism had been inoculated. The plate was then incubated under the conditions described above, following which it was examined visually for signs of microbial growth. If the test compound had antimicrobial activity, a circular zone of no growth would be obtained around the disc. The diameter of this zone of “inhibition” was measured using a ProtoCOL™ automated zone sizer (Synbiosis, Cambridge, UK). In general, a greater diameter and/or area of the zone of inhibition indicates a greater antimicrobial activity in the relevant test compound, although other factors such as test compound mobility through the agar gel may also influence the result.
(§2) Two test a compounds A and B were placed on a single paper disc and the above described DDA procedure repeated. An increase in diameter of the zone of inhibition, compared to the greater of the zone diameters for the two compounds individually, was taken to indicate potential antimicrobial synergy. In practical terms, an increase of greater than 5 mm could be treated as significant.
(§3) For the (S)DDA experiments; 200 μg of the DOS salts and/or the TCC were loaded onto each disc for Por. gingivalis experiments. For the Strep. mutans experiments, 200 μg of the TCC and 50 μg of DOSS were used on each disc. All the experiments were conducted in triplicate.
(In general: In agar diffusion tests the substance spreads into inoculated agar from a disc or well.)

For the next assay, the system named is Strep. mutans ATCC 25175. Kind of assay: (S)DDA disc diffusion. In kind it is cell-based, Streptococcus mutans. As for the experimental part: The S. mutans was cultured and maintained on Wilkins-Chalgren Anaerobe Medium (agar and broth) at pH 7.0 supplemented with 1 g/L glucose; all cultures were incubated at 37° C. for 48 h in an atmosphere containing 5% CO2.
as §1, §2, §3

In assay [2] the test system is C. mucifaciens ATCC 700355. Kind of assay: (S)DDA disc diffusion. Format: cell-based, Corynebacterium mucifaciens. The conditions noted are these: for DDA: 200 μg per disc. The protocol: (§4) Several Corynebacterium test species were also used in this study, namely C. mucifaciens ATCC 700355, C. striatum NCTC 764, C. xerosis NCTC 11861 and C. jeikeium NCTC 11915. These Gram-positive pathogens are closely related to organisms (aerobic diphtheroids of the genus Corynebacterium) that cause body odour. C. mucifaciens and C. striatum were cultured and maintained on Mueller-Hinton Medium (agar and broth) and were incubated aerobically at 37° C. for 24 hours. C. xerosis and C. jeikeium were cultured and maintained on Mueller-Hinton Medium containing 5% (v/v) lysed horse blood (agar and broth) and were incubated aerobically at 37° C. for 72 hours. A sterile paper disc was impregnated with a sample of the test compound in a suitable solvent and 30 minutes allowed for the solvents to evaporate (where possible). The disc was then placed on an agar plate onto which the test micro-organism had been inoculated. The plate was then incubated under the conditions described above, following which it was examined visually for signs of microbial growth. If the test compound had antimicrobial activity, a circular zone of no growth would be obtained around the disc. The diameter of this zone of “inhibition” was measured using a ProtoCOL™ automated zone sizer (Synbiosis, Cambridge, UK). In general, a greater diameter and/or area of the zone of inhibition indicates a greater antimicrobial activity in the relevant test compound, although other factors such as test compound mobility through the agar gel may also influence the result. Two test a compounds A and B were placed on a single paper disc and the above described DDA procedure repeated. An increase in diameter of the zone of inhibition, compared to the greater of the zone diameters for the two compounds individually, was taken to indicate potential antimicrobial synergy. In practical terms, an increase of greater than 5 mm could be treated as significant. The activities of DOSS and TCC were determined, using (S)DDAs, against the test organisms C. mucifaciens ATCC 700355, C. striatum NCTC 764, C. xerosis NCTC 11861 and C. jeikeium NCTC 11915. 200 μg of the DOSS and/or the TCC were loaded onto each disc. All the experiments were conducted in triplicate.

A further assay has as its system C. xerosis NCTC 11861. Kind of assay: (S)DDA disc diffusion. Format: cell-based, Corynebacterium xerosis. The conditions noted are these: for DDA: 200 μg per disc. As for the experimental part: as §4
Assay [3] concerns Clost. difficile ATCC 7000057. Kind of assay: (S)DDA disc diffusion. To be noted: 200 μg per disc. In kind it is cell-based, Clostridium difficile. The protocol:
as §1
(§5) Two test a compounds A and B were placed on a single paper disc and the above described DDA procedure repeated. […]
(§6) The activities of DOSS and TCC were determined, using (S)DDAs, against a panel of further test micro-organisms, namely B. cereus ATCC 11778, Bact. fragilis ATCC 25285, Clost. difficile […] and E. faecalis ATCC 29212. […]

Another assay relates to E. faecalis ATCC 29212. Kind of assay: (S)DDA disc diffusion. In kind it is cell-based, Enterococcus faecalis. To be noted: 200 μg per disc. As for the experimental part:
as §1, §5, §6

Where [4] appears, read: 200 μg TCC or 50 μg DOSS per disc.
Setting [5] is: 200 μg DOSS + 200 μg TCC on one disc.

In the assay with P. acnes NCTC 737, dioctyl sodium sulphosuccinate [DOSS] showed an MIC of 15.6 µg/mL. Also, the SDDA area increase in assay [1] is on record as 54.34%; in the assay on Strep. mutans ATCC 25175, 42.61%; in assay [2] it was 165.45%; in the assay on C. xerosis NCTC 11861 it was 145.4%. Besides, the SDDA increase is 12.39 mm in assay [1], 4.68 mm in the assay with Strep. mutans ATCC 25175, 8.13 mm in assay [2] and 6.6 mm in the assay on C. xerosis NCTC 11861. Further, the “SDDA with TCC” value in assay [1] (200 μg DOS salt + 200 μg TCC on one disc) amounted to 63.52 mm; with Strep. mutans ATCC 25175 (50 μg DOSS + 200 μg TCC on one disc) it was 28.78 mm; in assay [2] (setting [5]), 21.05 mm; with C. xerosis NCTC 11861 (setting [5]) it was 18.25 mm. In addition, the DDA amounted to 51.13 mm in assay [1]; 24.1 mm in the assay on Strep. mutans ATCC 25175 (setting [4]); 40.25 mm in the assay with Strep. mutans ATCC 25175 (200 μg per disc); 12.92 mm in assay [2]; 0.0 mm in the assay on C. xerosis NCTC 11861; 0.0 mm in assay [3]. For the same compound, the DDA in the assay with E. faecalis ATCC 29212 is reported as 10.31 mm.
In the case of `O=C(Nc1ccc(Cl)cc1)Nc1ccc(Cl)c(Cl)c1` [TCC, N-(4-chlorophenyl)-N′-(3,4-dichlorophenyl) urea], the minimum inhibitory concentration (MIC) in the assay on P. acnes NCTC 737 (Cutibacterium acnes, NCTC737, read-out: MIC) was found to be 0.12 µg/mL (≈ 0.38 µM). Also, the DDA is listed as 23.73 mm in assay [1]; 11.95 mm in the assay with Strep. mutans ATCC 25175 (setting [4]); 9.59 mm in assay [2]; 11.65 mm in the assay with C. xerosis NCTC 11861; 0.0 mm in assay [3]; 9.68 mm in the assay on E. faecalis ATCC 29212.
